The experiment can be described thus: Sensory evaluation of saltiness enhancing effect in aqueous salt solution (Experiments 2 and 3). Note: key: A test sample for which the majority of the expert panelists evaluated as having a stronger saltiness than the control sample was determined as having a saltiness enhancing effect (Good); a sample for which they did not so was determined as having no saltiness enhancing effect (Bad); *2: Undetermined whether saltiness was enhanced or not due to strong bitterness. Type of experiment: in vivo, human. The protocol:
The preparation of 3″-α-GN prepared in Experiment 1, Sunphenon EGCg-OP (from Taiyo Kagaku Co., Ltd., epigallocatechin gallate (EGCg), 95.3% pure), naringin (from Sichuan Xinhua Health Biotechnology Co., Ltd., 98.2% pure) or Hayashibara Hesperidin S (from Hayashibara Co., Ltd., monoglucosyl hesperidin, 82.1% pure), and salt (from The Salt Industry Center of Japan, the purity of sodium chloride was 99% or higher) were dissolved in pure water to give concentrations as shown in Table 1 below for preparing aqueous solutions of a control sample and test samples 1-1 to 1-5. Then, 9 panelists competent in food sensory evaluation who had passed the five-taste test (hereinafter referred to as “expert panelists”) conducted sensory evaluation tests on the test samples. Specifically, each of the expert panelists held a room-temperature control sample and a room-temperature test sample in her/his mouth and evaluated whether the saltiness of the test sample was weaker, similar, or stronger than that of the control sample, and recorded the overall taste.
Control samples 2 and 3 and test samples 9 and 10 were prepared as in Experiment 2, except that the concentrations of 3″-α-GN and salt were changed as shown in Table 2 below. Sensory evaluation tests were then conducted as in Experiment 2 to evaluate the intensity of saltiness of the test samples including 3″-α-GN as compared with the control samples of the same salt concentrations.

[1] abbreviates: 5 ppm in water, salt 0.5 mass % (test samples 3, 6, 7).

For four compounds, Saltiness enhancing effect results are on record in patent US20250000128A1, “SALTINESS ENHANCING COMPOSITION, AND COMPOSITION FOR ORAL USE AND METHOD OF ENHANCING SALTINESS THEREOF” (Nagase Viita Co., Ltd., priority 2021, published 2025).

In the case of “monoglucosyl hesperidin [reference compound]”, the Saltiness enhancing effect entry (4 ppm in water, salt 0.5 mass % (test sample 8)) is recorded as “Bad”.

As for `CC1O[C@@H](OC2C(O[C@H]3OC(CO)[C@@H](O)C(O)C3O)[C@H](O)C(CO)O[C@H]2Oc2cc(O)c3c(c2)OC(c2ccc(O)cc2)CC3=O)C(O)C(O)[C@H]1O` (stereo partly drawn) [3″-α-GN, 3″-α-monoglucosyl naringin], the Saltiness enhancing effect result is on record as “Good” (0.1 ppm in water, salt 0.5 mass %, G/S 0.02×10^−3 (test sample 1 vs control sample 1)); “Good” (1 ppm in water, salt 0.5 mass %, G/S 0.2×10^−3 (test sample 2)); “Good” (1 ppm in water, salt 1 mass %, G/S 0.1×10^−3 (test sample 9 vs control sample 2)); “Good” (1 ppm in water, salt 2 mass %, G/S 0.05×10^−3 (test sample 10 vs control sample 3)); “Good” under setting [1]; “Good” (10 ppm in water, salt 0.5 mass %, G/S 2.0×10^−3 (test sample 4)). For the same compound, the Saltiness enhancing effect result (40 ppm in water, salt 0.5 mass %, G/S 8.0×10^−3 (test sample 5)) is listed as “*2”.

For `O=C(O[C@@H]1Cc2c(O)cc(O)cc2O[C@@H]1c1cc(O)c(O)c(O)c1)c1cc(O)c(O)c(O)c1` [EGCg, epigallocatechin gallate, reference compound], the Saltiness enhancing effect entry under setting [1] is on record as “Bad”.

Regarding `C[C@@H]1O[C@@H](O[C@H]2[C@H](Oc3cc(O)c4c(c3)O[C@H](c3ccc(O)cc3)CC4=O)O[C@H](CO)[C@@H](O)[C@@H]2O)[C@H](O)[C@H](O)[C@H]1O` [Naringin, naringin, reference compound], under setting [1], the Saltiness enhancing effect entry is recorded as “Bad”.
